# Laboratory results as given in patent US20080299176A1, “DRUG DELIVERY DEVICE COMPRISING CROSSLINKED POLYURETHANE-SILOXANE-CONTAINING COPOLYMERS” (priority 2007, published 2008).
# Assay: Diffusion of FA through the copolymer membranes (Valia-Chien diffusion apparatus)
# Assay type: physicochemical
# Conditions: membrane of Example 5 composition, thickness 100 μm; PBS, 37° C.; FA 2 mg in donor cell; HPLC at 238 nm
# Procedure: The diffusion was carried out using Valia-Chien diffusion apparatus. FA and membranes with a composition described in Example 5 were used. FA (2 mg) and PBS (3.2 mL) were added to each of the donor cells, and 3.2 mL PBS were added in each of the receptor cells. The cells were capped and the temperature was kept at 37° C. using a circulating water bath. At given time intervals, the diffusion media in the receptor cells were removed and replaced by fresh PBS. FA concentration in the release media was determined using a set of HP series 1100 HPLC instruments equipped with a degasser, a binary pump, an auto sampler and a DAD detector. The column used was an Altima C18 (5μ, 250 mm×4.6 mm). The mobile phase was 40% ACN in water and the flow rate was 1.0 mL/m in. The eluted FA was detected at 238 nm. The concentration of FA in the media was directly determined using HPLC. The diffusion rate of FA through the copolymer membranes with a thickness of 100 μm was estimated to be 1.4 μg/cm^2/hour.
compound,measurement,value
"CC1(C)O[C@@H]2C[C@H]3[C@@H]4C[C@H](F)C5=CC(=O)C=C[C@]5(C)[C@@]4(F)[C@@H](O)C[C@]3(C)[C@]2(C(=O)CO)O1 [FA, fluocinolone acetonide]",diffusion rate of FA through the copolymer membranes,1.4 μg/cm^2/hour
